US20240261417A1, “SOS1 DEGRADING AGENT AND PREPARATION METHOD THEREFOR AND APPLICATION THEREOF” (SHANGHAI LEADINGTAC PHARMACEUTICAL CO. LTD., priority 2021, published 2024)

Columns and labels:
Assay type in all cases: cell-based
[1] = system: KRAS G12V mutant human lung adenocarcinoma cells NCI-H441; assay: 3D cell proliferation inhibition assay, NCI-H441; settings: Homo sapiens, NCI-H441, 168 h, 7 days, CTG
Protocol: (§1) Inhibition of 3D cell proliferation by the compounds was investigated on KRAS G12C mutant human non-small cell lung cancer cells NCI-H358 (ATCC or Stem Cell Bank, Chinese Academy of Sciences), KRAS G12D mutant human metastatic pancreatic adenocarcinoma cells AsPC-1 (ATCC), KRAS G12V mutant human lung adenocarcinoma cells NCI-H441 (ATCC), and KRAS G13D mutant human colorectal adenocarcinoma epithelial cells DLD-1 (ATCC). The specific procedures were as follows:
(§2) 200 nL of compound solution diluted in a gradient was added to corresponding microwells of a 384-well low-adsorption microwell plate (Corning, 3657) using an Echo sonic pipetting system (Labcyte, Echo 550), so that the final concentration of the test compound in the reaction system was in a range of 20000 nM-0.008 nM. Then 40 μL of cells at a certain density were added to the corresponding microplate. In addition to test wells for the test compounds, both a DMSO control well and a medium control well were set, with the DMSO control well containing DMSO and cells and the medium well containing only medium. After sample loading, the plate cover was applied, and the 384-well low-adsorption microplate was incubated in an incubator at 37° C. with 5% carbon dioxide for 7 days. After 7 days, the microplate was taken out, and 40 μL of CTG reagent (Promega, G9683) was added to each well. The plate was incubated at room temperature for 30 min and read on a microplate reader EnVision using the chemiluminescence program. The inhibition rates of the compounds at each concentration were calculated by the formula for the percentage inhibition of cell proliferation: inhibition rate %=(mean value of DMSO control group−single concentration reading value of compound)/(mean value of DMSO control group−mean value of medium control group)×100, and then nonlinear curve fitting was performed by GraphPad Prism 8 in the logarithmic concentration-inhibition rate to obtain the IC50 values of the compounds.

[2] = system: KRAS G13D mutant human colorectal adenocarcinoma epithelial cells DLD-1; assay: 3D cell proliferation inhibition assay, DLD-1; settings: Homo sapiens, DLD-1, 168 h, 7 days, CTG
Protocol: as §1, §2

[3] = system: KRAS G12D mutant human metastatic pancreatic adenocarcinoma cells AsPC-1; assay: 3D cell proliferation inhibition assay, AsPC-1; settings: Homo sapiens, ASPC1, 168 h, 7 days, CTG
Protocol: as §1, §2

[4] = system: KRAS G12C mutant human non-small cell lung cancer cells NCI-H358; assay: 3D cell proliferation inhibition assay, NCI-H358; settings: Homo sapiens, NCI-H358, 168 h, 7 days, CTG
Protocol: as §1, §2

| SMILES | IC50 [1] | IC50 [2] | IC50 [3] | IC50 [4] |
| --- | --- | --- | --- | --- |
| CNCc1ccccc1-c1csc([C@@H](C)Nc2nc(C)nc3cc(OC)c([C@H]4CC[C@H](C(=O)N5CCN(CC6CCC7(CC6)CCN(C(=O)c6ccc(OC)c(N8CCC(=O)NC8=O)c6)CC7)CC5)CC4)cc23)c1 [Example 73, 1-(2-methoxy-5-(9-((4-((1R,4R)-4-(7-methoxy-2-methyl-4-(((R)-1-(4-(2-((methylamino)methyl)phenyl)thien-2-yl)ethyl)amino)quinazolin-6-yl)cyclohexane-1-carbonyl)piperazin-1-yl)methyl)-3-azaspiro[5.5]undecane-3-carbonyl)phenyl)dihydropyrimidine-2,4(1H,3H)-dione] | 100 to 1000 nM | 50 to 100 nM | 100 to 1000 nM | ≤ 15 nM |
| COc1cc2nc(C)nc(N[C@H](C)c3cc(N)cc(C(F)(F)F)c3)c2cc1[C@H]1CC[C@H](C(=O)N2CCN(CCOCC3CCN(C(=O)c4ccc(Cl)c(N5CCC(=O)NC5=O)c4)CC3)CC2)CC1 [Example 33, 1-(5-(4-((2-(4-((1R,4R)-4-(4-(((R)-1-(3-amino-5-(trifluoromethyl)phenyl)ethyl)amino)-7-methoxy-2-methylquinazolin-6-yl)cyclohexane-1-carbonyl)piperazin-1-yl)ethoxy)methyl)piperidine-1-carbonyl)-2-chlorophenyl)dihydropyrimidine-2,4(1H,3H)-dione] | 100 to 1000 nM | 50 to 100 nM | 100 to 1000 nM | ≤ 15 nM |
| COc1cc2nc(C)nc(N[C@H](C)c3cc(N)cc(C(F)(F)F)c3)c2cc1[C@H]1CC[C@H](C(=O)N2CCN(CC3CCC4(CC3)CCN(C(=O)c3ccc(Cl)c(N5CCC(=O)NC5=O)c3)CC4)CC2)CC1 [Example 2, 1-(5-(9-((4-((1R,4R)-4-(4-(((R)-1-(3-amino-5-(trifluoromethyl)phenyl)ethyl)amino)-7-methoxy-2-methylquinazolin-6-yl)cyclohexane-1-carbonyl)piperazin-1-yl)methyl)-3-azaspiro[5.5]undecane-3-carbonyl)-2-chlorophenyl)dihydropyrimidine-2,4(1H,3H)-dione] | 100 to 1000 nM | 15 to 30 nM | 100 to 1000 nM | ≤ 15 nM |

Second part, the molecule after the results:

| IC50 [1] | IC50 [2] | IC50 [3] | IC50 [4] | SMILES |
| --- | --- | --- | --- | --- |
| 30 to 50 nM | 30 to 50 nM | 15 to 30 nM | ≤ 15 nM | COc1cc2nc(C)nc(N[C@H](C)c3cc(N)cc(C(F)(F)F)c3)c2cc1[C@H]1CC[C@H](C(=O)N2CCN(CCC3CCC4(CC3)CCN(C(=O)c3ccc(Cl)c(N5CCC(=O)NC5=O)c3)CC4)CC2)CC1 [Example 1, 1-(5-(9-(2-(4-((1R,4R)-4-(4-(((R)-1-(3-amino-5-(trifluoromethyl)phenyl)ethyl)amino)-7-methoxy-2-methylquinazolin-6-yl)cyclohexane-1-carbonyl)piperazin-1-yl)ethyl)-3-azaspiro[5.5]undecane-3-carbonyl)-2-chlorophenyl)dihydropyrimidine-2,4(1H,3H)-dione] |
| 50 to 100 nM | 100 to 1000 nM | 100 to 1000 nM | ≤ 15 nM | COc1cc2nc(C)nc(N[C@H](C)c3cc(N)cc(C(F)(F)F)c3)c2cc1[C@H]1CC[C@H](C(=O)N2CCC(CCOCC3CCN(C(=O)c4ccc(Cl)c(N5CCC(=O)NC5=O)c4)CC3)CC2)CC1 [Example 19, 1-(5-(4-((2-(1-((1R,4R)-4-(4-(((R)-1-(3-amino-5-(trifluoromethyl)phenyl)ethyl)amino)-7-methoxy-2-methylquinazolin-6-yl)cyclohexane-1-carbonyl)piperidin-4-yl)ethoxy)methyl)piperidine-1-carbonyl)-2-chlorophenyl)dihydropyrimidine-2,4(1H,3H)-dione] |
| ≤ 15 nM | 15 to 30 nM | 30 to 50 nM | ≤ 15 nM | COc1cc2nc(C)nc(N[C@H](C)c3cccc4c3CCS4(=O)=O)c2cc1[C@H]1CC[C@H](C(=O)N2CCN(CC3CCC4(CC3)CCN(C(=O)c3ccc(Cl)c(N5CCC(=O)NC5=O)c3)CC4)CC2)CC1 [Example 10, 1-(2-chloro-5-(9-((4-((1R,4R)-4-(4-(((R)-1-(1,1-dioxo-2,3-dihydrobenzo[b]thiophen-4-yl)ethyl)amino)-7-methoxy-2-methylquinazolin-6-yl)cyclohexane-1-carbonyl)piperazin-1-yl)methyl)-3-azaspiro[5.5]undecane-3-carbonyl)phenyl)dihydropyrimidine-2,4(1H,3H)-dione] |
